The test system of series [1] is high energy diet-induced Type II diabetes. Nature of the series: Sand rat high energy diet Type II diabetes model, glucose tolerance test and cataract formation (Example 6). It is filed as in vivo, sand rat (Psammomis obesus). As to conditions: for three hours response to an orally-administered glucose dose, value above the zero (standard diet Group I): 200 mg glucose per 100 g body weight, end of 53 day experiment, high energy diet; for Cataract formation: high energy diet (HE) sand rats, 53 days. An excerpt: (§1) Sand rats (Psammomis Obesus) were used as a model for Type 2 diabetes. The sand rats transferred onto high energy diet develop a severe form of Type 2 diabetes, including high blood glucose level, increase in body weight, and cataract development (eye lens opacification).
(§2) The sand rats were divided into groups. The animals from the Group I received the standard diet, serving as a control, whereas animals from the other indicated groups received high energy diet, leading to diabetes development. The high-energy diet ed mice were either untreated, or treated with intra-peritoneal injections of 2.5 mg/kg body weight Ga-DFO, Zn-DFO, DFO alone, Zn, Ga or lipoic acid (LA), either twice or three times per week, as indicated, for the duration of the experiment. The blood glucose and body weight of the animals were monitored throughout the experiment.
Forty two sand rats were divided into seven groups, six animals in each. The animals from Group I received the standard diet and used as a control. The animals from the Groups II, III, IV, V, VI and VII received high energy diet, leading to diabetes development, while Groups III, IV and VII were treated with Zn-DFO, Ga-DFO and DFO alone, respectively. The Groups V and VI received Zn and Ga, in their chloride salt form, alone respectively. Administration of the different treatments was as described, and the experiment lasted for 53 days. Glucose tolerance test was performed at the end of experiment. The cataract formation was tested as well.

The conditions of series [2]: complex of desferrioxamine with the named metal ion; cited from earlier work.
For series [3], the system named is ovalbumin-induced asthma. As to the kind of experiment: Ovalbumin-induced asthma, prophylactic treatment model (lung ferritin). The format is in vivo, BALB/c mice. To be noted: asthmatic mice, 1 and 0.3 mg/kg i.p., then 0.3 mg/kg i.n. On the procedure: Ferritin concentration was quantified using an indirect ‘sandwich’ ELISA assay in accordance with a procedure developed previously in our laboratory. Briefly, ELISA 96-well micro plates were pre-coated with goat anti-human L-ferritin antibody. Rabbit anti-human H-ferritin was used as the secondary antibody. Plates were treated with goat anti-rabbit IgG conjugated with β-galactosidase. Chlorophenol Red-β-D-Galactopyranoside was then added and the plates analyzed using a microplate reader with a test (570 nm) and reference (630 nm) filters.
• Twelve-week-old Balb/c mice were administered 10 μg (100 μl) ovalbumin (OVA) dissolved with 3 mg Al(OH)3 in 0.9% saline intraperitoneally (i.p.) on days 0, 7 and 14, and 10 μg (50 μl) OVA intranasally (i.n.) on days 20, 23, 25, 27, 29, 31, 34, 36, 37, 41, 43 and 45. […]
(§3) To estimate the anti-asthmatic effect of the complexes the following parameters were measured: the concentration of ferritin in the lungs, the presence of inflammatory cells infiltration into the lungs, and the amounts of macrophages, eosinophils, lymphocytes and neutrophils in bronchoalveolar lavages (BALs).

For series [4], the system named is high energy diet-induced Type II diabetes. As to the kind of experiment: Sand rat high energy diet Type II diabetes model, blood glucose and body weight (Example 5). The format is in vivo, sand rat (Psammomis obesus).
From the text: as §1, §2
The sand rats were divided into four groups (6 animals in each). Animals from Group I received the standard diet, serving as a control. The animals from the Groups II, III and W received high energy diet, leading to diabetes development, while Groups III and IV were treated with Ga-DFO and lipoic acid (LA), respectively. The intra-peritoneal injections of 2.5 mg Ga-DFO or LA per kg body weight were performed twice a week, for 61 days. The blood glucose and body weight of the animals were monitored during all the experiment.

The nature of series [5]: pH limit of the complex solution during preparation (loss of biological activities). As to conditions: pH above 5.6; solution reacts with air-containing CO2. The format is physicochemical.
Series [6] relates to ovalbumin-induced asthma. As to the kind of experiment: Ovalbumin-induced asthma, treatment of chronic asthma model (BAL cells, lung histology). It is filed as in vivo, BALB/c mice. As to conditions: Mean ± SE. The protocol: • Twelve-week-old Balb/c mice were administered 10 μg (100 μl) ovalbumin (OVA) dissolved with 3 mg Al(OH)3 in 0.9% saline intraperitoneally (i.p.) on days 0, 7 and 14, and 10 μg (50 μl) OVA intranasally (i.n.) on days 20, 23, 25, 27, 29, 31, 34, 36, 37, 41, 43 and 45. For intranasal administration, mice were anesthetized with inhaled N-flurane and instilled with OVA i.n. with a micropipette. • Three-week-old BALB/c mice were sensitized (×3) with intra-peritoneal (i/p) injection (100 μl OVA solution, containing 0.3 mg OVA and 6.7 mg Al(OH)3, in 1 ml PBS) on days 0, 7 and 14. On days 14, 15, 17, 21 and 23 the mice were further sensitized with intranasal sprinklings (50 μl, each) of OVA in PBS solution containing 2 mg/ml OVA, as following: mice were anesthetized with inhaled N-flurane and instilled with OVA intra-nasally using a micropipette. Twenty-four hours after the last administration of OVA, the mice were sacrificed. Methacholine Challenge and Collection of Histologic Sections and Biochemical Samples
Either Zn-DFO, Ga-DFO, Zn-DFO and Ga-DFO 1:1 combination (herein metal complexes) or saline were administered as follows: on days −5, −1, 7 and 14, 1 mg/kg body weight metal complexes or saline were administered intraperitoneally (i.p.). On days 0, 6, 8, 13 and 15, 0.3 mg/kg body weight metal complexes or saline were administered i.p. On days 20, 23, 25, 27, 29, 31, 34, 36, 37, 41, 43 and 45, 0.3 mg/kg body weight metal complexes or saline were administered intranasally (i.n.). Twenty-four hours after the last sensitization, mice were anesthetized with urethane and the lungs were lavaged 4 times with 0.5 ml sterile PBS. Animals in the “control” group (non-asthmatic—saline treated, but not sensitized) (n=6) received saline injections and instillations, using the same regime as the asthmatic and treated animals. Animals of the “asthmatic” group (sensitized and saline-treated, rather than complex-treated) (n=6) received saline instead of the respective complex, under the same regime.
For the treatment of chronic asthma model, a similar experimental protocol was followed, with the following modifications: 1 mg/kg body weight metal complexes or saline were administered i.p. on day 0 (instead of days −5 and −1) and a further 0.3 mg/kg complexes or saline were administered on day 1. In this model, the effects of the complexes were investigated further by histological examination of lung sections stained with either haematoxylin-eosine or PAS/AB (periodic acid-Schiff/alcan blue).
as §3

[7] abbreviates: Day 0, 2.5 mg/kg i.p. twice a week, mean, SD in the line below.
[8] abbreviates: Day 7, 2.5 mg/kg i.p. twice a week.
[9] abbreviates: Day 21, 2.5 mg/kg i.p. twice a week.
[10] abbreviates: Day 21, 2.5 mg/kg i.p. twice a week, 2.5 mg/kg.
Setting [11] is: Day 32, 2.5 mg/kg i.p. twice a week.
Setting [12] is: Day 42, 2.5 mg/kg i.p. twice a week.
[13] abbreviates: Day 49, 2.5 mg/kg i.p. twice a week.
The mark [14] stands for this setting: Day 56, 2.5 mg/kg i.p. twice a week.
[15] abbreviates: Day 61, 2.5 mg/kg i.p. twice a week.
The mark [16] stands for this setting: Day 61, 2.5 mg/kg i.p. twice a week, 2.5 mg/kg.

Values joined by “and” are separate entries in the source; they are usually repeats but may differ in a detail not shown here. Equal entries are not always repeated.

In the case of `CC(=O)N(O)CCCCCNC(=O)CCC(=O)N(O)CCCCCNC(=O)CCC(=O)N(O)CCCCCN` [DFO, N′-{5-[acetyl(hydroxy)amino]pentyl}-N-[5-({4-[(5-aminopentyl)(hydroxy)amino]-4-oxobutanoyl}amino)pentyl]-N-hydroxy-succinamide], in series [1], the “three hours response to an orally-administered glucose dose, value above the zero (standard diet Group I)” value (“three hours response” for short) amounted to 150 mg/dL and the Cataract formation stood at 25%.

With `CC(=O)N([O-])CCCCCNC(=O)CCC(=O)N([O-])CCCCCNC(=O)CCC(=O)N([O-])CCCCCN.[Fe+3]` [Fe(III), reference compound], in series [2], the “relative stability constants for the complexes of desferrioxamine” value is listed as 10^31.

Consider `[Cl-].[Cl-].[Cl-].[Ga+3]` [Ga, Gallium (III) chloride], for which, in series [1], the “three hours response” value came out at 25 mg/dL and the Cataract formation is on record as 36%.

Turning to `CC(=O)N([O-])CCCCCNC(=O)CCC(=O)N([O-])CCCCCNC(=O)CCC(=O)N([O-])CCCCCN.[Ga+3]` [Ga-DFO, gallium-desferrioxamine], the lung ferritin level with ovalbumin-induced asthma [3] was 0.5 ± 0.3 µg/mg. The Blood glucose level in series [4] (setting [7]) is 91.8 mg/dL; in series [4] (setting [8]), 94.6 mg/dL; in series [4] (setting [10]), 176 ± 46 mg/dL and 176.4 mg/dL; in series [4] (setting [11]), 81.2 mg/dL; in series [4] (setting [12]) it was 89.0 mg/dL; in series [4] (setting [13]), 122.0 mg/dL. In addition, the Blood glucose level in series [4] (setting [14]) was 129.2 mg/dL; in series [4] (setting [16]), 98 ± 29 mg/dL and 97.8 mg/dL. Further, the Body weight in series [4] (setting [7]) stood at 131.6 g; in series [4] (setting [8]), 154.0 g; in series [4] (setting [9]), 173.2 g; in series [4] (setting [11]) it was 180.4 g; in series [4] (setting [12]), 192.4 g; in series [4] (setting [13]), 204.0 g. Further, the Body weight in series [4] (setting [14]) came to 212.4 g; in series [4] (setting [15]), 214.4 g. The “effect of higher pH on the Ga-DFO solution” value in series [5] is “marked loss of the biological activities”. For the same molecule, the “relative stability constants for the complexes of desferrioxamine” value in series [2] is on record as 10^28. Further, the “Eosinophils in BAL fluid” value in the series on ovalbumin-induced asthma [6] is listed as 0.2 ± 0.02^# 10^4 cells/ml. The “Lymphocytes in BAL fluid” value in the series with ovalbumin-induced asthma [6] is listed as 0.3 ± 0.06^# 10^4 cells/ml. Also, in the series on ovalbumin-induced asthma [6], the “Macrophages in BAL fluid” value was 3.3 ± 0.2^# 10^4 cells/ml. For the same molecule, the “Neutrophils in BAL fluid” value in the series on ovalbumin-induced asthma [6] is on record as 0.3 ± 0.07^# 10^4 cells/ml. Moreover, the “Total WBC in BAL fluid” value in the series with ovalbumin-induced asthma [6] is on record as 4.5 ± 0.6^# 10^4 cells/ml. Also, in series [1], the “three hours response” value was 5 mg/dL. Further, the Cataract formation in series [1] is given as 11%.

Take `O=C(O)CCCCC1CCSS1` (stereo not shown) [LA, Lipoic acid, reference compound]: the Blood glucose level was 92.8 mg/dL in series [4] (setting [7]); 97.4 mg/dL in series [4] (setting [8]); 259 ± 49 mg/dL and 259.4 mg/dL in series [4] (setting [10]); 176.4 mg/dL in series [4] (setting [11]); 196.4 mg/dL in series [4] (setting [12]); 185.2 mg/dL in series [4] (setting [13]). The Blood glucose level in series [4] (setting [14]) is 220.6 mg/dL; in series [4] (setting [16]), 168 ± 33 mg/dL and 167.8 mg/dL. In addition, the Body weight in series [4] (setting [7]) worked out at 113.4 g; in series [4] (setting [8]), 137.0 g; in series [4] (setting [9]), 160.4 g; in series [4] (setting [11]), 170.2 g; in series [4] (setting [12]) it was 189.2 g; in series [4] (setting [13]) it was 201.4 g. Moreover, the Body weight in series [4] (setting [14]) stood at 211.8 g; in series [4] (setting [15]), 218.0 g.

For `[Cl-].[Cl-].[Zn+2]` [Zn, Zinc chloride], in series [1], the “three hours response” value came to 38 mg/dL and the Cataract formation amounted to 22%.

The record behind these values is patent US9770430B2, “Desferrioxamine-metal complexes for the treatment of immune-related disorders” (priority 2009, dated 2017).
